The source of these data is ChEMBL document CHEMBL1201862, “PubChem BioAssay data set” (2004).

The target in test [1] is Protein disulfide-isomerase (Homo sapiens, UniProt P07237). Kind of test: inhibition of PDI-driven insulin aggregation – biochemical, turbidity, absorbance, cherry-picked samples, dose response (AID 602350). Format: functional.
The target of test [2] is Peroxisome proliferator-activated receptor gamma/Nuclear receptor corepressor 2 (Homo sapiens, UniProt P37231+Q9Y618). Kind of test: Counterscreen for NR2E3 inverse agonists: TR-FRET-based biochemical high throughput dose response assay to identify inverse agonists of the interaction between peroxisome proliferator-activated receptor gamma (PPARg) and nuclear receptor co-repressor 2 (NCOR2). Format: functional. On the technique in general: The purpose of a counterscreen is to sort out artefacts and off-target activity.

Test [3] deals with Photoreceptor-specific nuclear receptor (Homo sapiens, UniProt Q9Y5X4). Kind of test: ligands suppressing NR2E3 nuclear receptor activity – biochemical, TR-FRET, dose response (AID 463256). Format: functional.
In test [4] the test system is CHO-K1. Kind of test: Counterscreen for antagonists of the orexin 1 receptor (OX1R; HCRTR1): Homogeneous time resolved fluorescence (HTRF)-based cell-based dose response assay to identify antagonists of the parental CHO-K1 cell line. [Related pubchem assays (depositor defined):AID434989, AID435008, AID463079, AID485270, AID492963, AID492964, AID492965, AID493232, AID504699, AID504701]. Format: functional. The note with it: Cricetulus griseus.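 Further: potency for inhibition of ATP-stimulated IP1 production as antagonists.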

The nature of test [5]: Counterscreen for antagonists of the orexin 1 receptor (OX1R; HCRTR1): Fluorescence-based cell-based high throughput dose response assay to identify antagonists of the parental CHO cell line. [Related pubchem assays (depositor defined):AID434989, AID435008, AID463079, AID485270, AID492963, AID492964, AID492965, AID493232, AID504699, AID504701]. Format: functional.
Test [6] concerns the target T1, Orexin/Hypocretin receptor type 1 (Homo sapiens, UniProt O43613). Kind of test: Homogeneous Time Resolved Fluorescence (HTRF)-based cell-based high throughput dose response assay for antagonists of the orexin 1 receptor (OX1R; HCRTR1). [Related pubchem assays (depositor defined):AID434989, AID435008, AID463079, AID485270, AID492963, AID492964, AID492965, AID493232, AID504717, AID504718]. Format: functional.

The target of test [7] is T1, Orexin/Hypocretin receptor type 1. The test is described as follows: Fluorescence-based cell-based high throughput dose response assay for antagonists of the orexin 1 receptor (OX1R; HCRTR1). [Related pubchem assays (depositor defined):AID434989, AID435008, AID463079, AID485270, AID492963, AID492964, AID492965, AID493232, AID504717, AID504718]. Format: functional.
Test [8] concerns the target T2, Orexin receptor type 2 (Homo sapiens, UniProt O43614). Kind of test: Counterscreen assay for antagonists of the orexin 1 receptor (OX1R; HCRTR1): Fluorescence-based cell-based dose response assay for antagonists of the orexin 2 receptor (OX2R; HCRTR2), run by assay provider. Format: functional.
The target in test [9] is T2, Orexin receptor type 2. Kind of test: Counterscreen assay for antagonists of the orexin 1 receptor (OX1R; HCRTR1): Homogeneous Time Resolved Fluorescence (HTRF)-based cell-based dose response assay for antagonists of the orexin 2 receptor (OX2R; HCRTR2), run by assay provider. Format: functional.
A short description of test [10]: NIH-3T3 fibroblast cytotoxicity, dose response, cytotoxicity control, cell-based, fluorescence, Alamar Blue, secondary assay (AID 2327).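 Further: NIH-3T3 mouse fibroblasts cultured with fluconazole at 8 µg/mL.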 Format: functional. On the technique in general: Resazurin is reduced to fluorescent resorufin, in cell work by metabolically active cells.
A short description of test [11]: luciferase reporter signal suppression in cells – H4 neuroglioma cells, luminescence, dose response (AID 1990). Format: functional, cell-based. (In general: In a reporter assay the amount or activity of a reporter protein is the signal.)
Test [12] deals with Streptococcus sp. 'group A'. Kind of test: Streptococcus pyogenes SK(-)GAS viability under kanamycin – luminescence, BacTiterGlo, confirmation, counter-screen for streptokinase expression inhibitor project, dose response (AID 1900). Format: functional, organism-based.
In test [13] the test system is BJ. Kind of test: BJ-TERT fibroblast viability loss – cell-based, RAS-independent, luminescence, dose response (AID 1933). Format: functional. Conditions: Homo sapiens.
Test [14] can be described thus: Luminescence Cell-Based Dose Response HTS to Identify Inhibitors of 5'UTR Stem-Loop Driven Prion Protein mRNA Translation in H4 Neuroglioblastoma Cells. [Related pubchem assays: 1827 (Project Summary), 1813 (Primary HTS)]. Format: functional.
Test [15] in a line: alpha-synuclein stem-loop luciferase translation blockers – H4 neuroglioma cells, luminescence, confirmation (AID 1988). Format: functional, cell-based.
The subject of test [16] is BJ. The test is described as follows: cells. Format: functional, cell-based. Conditions: Homo sapiens.
A short description of test [17]: fluconazole-exposed Candida albicans growth modulators – fluorescence, retest, confirmation (AID 2467). Format: functional, cell-based.
For test [18], the system named is BJ. Kind of test: BJ-TERT-LT-ST fibroblast viability loss – cell-based, RAS-independent, luminescence, dose response (AID 1935).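 Further: BJ fibroblasts immortalized with TERT plus LT and ST oncogenes.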 Conditions: Homo sapiens. Format: functional.
Test [19] can be described thus: DRD fibroblast viability loss – cell-based, non-viral oncogenic, luminescence, dose response (AID 1934). The note with it: Homo sapiens. Format: functional.
Test [20] deals with Streptococcus. The test is described as follows: GAS UMAA2166 growth inhibition – luminescence, BacTiterGlo, counter-screen for streptokinase expression inhibitor project, dose response (AID 1915).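 Further: potency for reduction of bacterial viability or growth.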 Format: functional, organism-based.
In test [21] the target is Beta-galactosidase (Escherichia coli, UniProt Q8VNN2). The test is described as follows: detection-enzyme interference by beta-gal modulators – biochemical, E. coli enzyme, set 3, artefact control for CCR6 antagonist project, dose response (AID 504712). Format: functional.
Test [22] deals with T3, Short transient receptor potential channel 4 (Mus musculus, UniProt Q9QUQ5).
T3 sequence (Q9QUQ5 whole entry): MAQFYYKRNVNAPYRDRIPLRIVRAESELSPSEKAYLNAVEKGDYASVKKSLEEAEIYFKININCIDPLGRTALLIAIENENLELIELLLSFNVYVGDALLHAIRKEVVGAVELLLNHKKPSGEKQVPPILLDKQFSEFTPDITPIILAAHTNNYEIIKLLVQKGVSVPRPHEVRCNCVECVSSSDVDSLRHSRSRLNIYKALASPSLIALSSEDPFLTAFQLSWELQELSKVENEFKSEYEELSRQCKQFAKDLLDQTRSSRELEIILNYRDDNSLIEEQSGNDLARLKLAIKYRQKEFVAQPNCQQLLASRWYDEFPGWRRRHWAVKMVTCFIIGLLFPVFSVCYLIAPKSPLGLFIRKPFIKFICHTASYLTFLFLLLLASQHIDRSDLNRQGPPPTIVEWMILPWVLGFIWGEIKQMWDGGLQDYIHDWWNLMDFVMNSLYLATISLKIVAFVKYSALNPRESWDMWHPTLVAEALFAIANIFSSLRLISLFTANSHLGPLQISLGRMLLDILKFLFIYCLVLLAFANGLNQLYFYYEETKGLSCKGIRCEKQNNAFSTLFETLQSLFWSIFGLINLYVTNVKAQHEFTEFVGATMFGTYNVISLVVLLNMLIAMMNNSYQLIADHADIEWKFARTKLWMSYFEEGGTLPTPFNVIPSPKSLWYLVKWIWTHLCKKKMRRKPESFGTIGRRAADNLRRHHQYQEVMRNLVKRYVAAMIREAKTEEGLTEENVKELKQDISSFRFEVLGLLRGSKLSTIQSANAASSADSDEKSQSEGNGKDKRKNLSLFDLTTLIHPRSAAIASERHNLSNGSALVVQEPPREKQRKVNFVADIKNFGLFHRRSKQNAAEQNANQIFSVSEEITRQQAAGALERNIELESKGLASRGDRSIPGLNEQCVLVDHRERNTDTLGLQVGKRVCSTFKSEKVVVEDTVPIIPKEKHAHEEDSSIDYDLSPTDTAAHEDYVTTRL
Kind of test: calcium entry via TRPC4 opening agents – cell-based, HEK293 TRPC4/mu-opioid, Fluo-4 calcium, dose response (AID 434937). Format: functional.

Test [23] is described as follows: HEK-293T viability loss after treatment – luminescence, T-cell screen hits, cytotoxicity control for TCR NF-kB inhibitor project, dose response (AID 489026).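 Further: cells exposed to compound about 14 hours before the viability readout.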 Format: functional, cell-based.
Test [24] concerns the target T4, Insulin-degrading enzyme (Homo sapiens, UniProt P14735).
T4 sequence (P14735 whole entry): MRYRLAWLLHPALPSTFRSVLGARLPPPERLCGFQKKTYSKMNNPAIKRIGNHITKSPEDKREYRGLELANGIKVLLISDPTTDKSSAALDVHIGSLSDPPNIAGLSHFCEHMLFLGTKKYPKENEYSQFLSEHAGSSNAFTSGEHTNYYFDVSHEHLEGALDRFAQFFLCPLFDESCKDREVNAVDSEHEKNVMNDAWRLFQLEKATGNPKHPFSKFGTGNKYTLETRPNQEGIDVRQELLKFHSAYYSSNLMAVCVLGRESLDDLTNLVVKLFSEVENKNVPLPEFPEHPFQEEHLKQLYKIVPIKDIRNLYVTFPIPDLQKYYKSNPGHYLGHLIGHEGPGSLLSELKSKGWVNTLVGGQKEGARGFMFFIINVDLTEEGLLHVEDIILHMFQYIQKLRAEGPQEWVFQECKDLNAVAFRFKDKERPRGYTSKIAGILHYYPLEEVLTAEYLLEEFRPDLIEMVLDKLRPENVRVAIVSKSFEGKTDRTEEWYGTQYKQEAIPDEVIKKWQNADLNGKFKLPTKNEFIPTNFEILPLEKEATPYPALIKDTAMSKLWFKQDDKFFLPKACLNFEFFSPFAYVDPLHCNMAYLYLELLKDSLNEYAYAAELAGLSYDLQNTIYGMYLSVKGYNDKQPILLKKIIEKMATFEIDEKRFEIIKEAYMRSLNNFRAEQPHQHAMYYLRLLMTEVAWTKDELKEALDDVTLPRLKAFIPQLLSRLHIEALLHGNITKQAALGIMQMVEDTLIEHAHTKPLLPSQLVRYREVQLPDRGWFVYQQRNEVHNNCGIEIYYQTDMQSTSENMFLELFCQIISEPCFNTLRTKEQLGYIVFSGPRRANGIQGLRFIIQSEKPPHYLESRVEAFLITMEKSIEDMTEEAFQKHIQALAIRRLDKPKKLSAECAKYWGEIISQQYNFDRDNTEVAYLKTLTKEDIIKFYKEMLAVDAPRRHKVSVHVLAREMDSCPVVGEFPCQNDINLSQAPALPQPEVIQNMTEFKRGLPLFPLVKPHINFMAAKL
The test is described as follows: recombinant IDE activation, cell-free – biochemical, fluorescence polarization, counter-screen for IDE activator project, dose response (AID 588681).

Test [25] relates to BJ. The test is described as follows: growth inhibition of engineered Ras-driven BJ cells – cell-based, alamar blue fluorescence, cherrypicked samples, dose response (AID 2631).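 Further: confirmatory dose-response assay in RAS-dependent BJ fibroblasts engineered with TERT, LT and ST, with cytotoxicity read by fluorescence.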 Format: functional. Conditions: Homo sapiens.
Test [26] concerns the target T4, Insulin-degrading enzyme. The test is described as follows: cellular IDE activation of Abeta substrate cleavage – fluorescence polarization, HEK cells, dose response (AID 588439). Format: functional, cell-based.
The subject of test [27] is INS1. The test is described as follows: INS-1E survival protection against cytokine death – cell-based, luminescence, retest, dose response (AID 449756).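 Further: cell death triggered by IL-1 beta plus TNF-alpha plus IFN-gamma mixture; protective hits raise ATP signal compared with cytokine alone wells.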 The note with it: Rattus norvegicus. Format: functional.
In test [28] the test system is HEK293. The test is described as follows: membrane integrity loss in HEK cells – cell-based, fluorescence, cytotoxicity control for IDE activator project, dose response (AID 588440).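 Further: cytotoxicity by LDH release measuring loss of membrane integrity.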 Format: functional. The note with it: Homo sapiens.
For test [29], the system named is HEK293. Kind of test: optical interference in Abeta FP readout, dose response, artefact control for IDE activator project, biochemical, fluorescence polarization (AID 588442). Format: functional, cell-based. The note with it: Homo sapiens.
Test [30] is described as follows: reduction of Shn3 3'UTR-driven luciferase in osteoblasts – cell-based, Clone20 osteoblasts, firefly luciferase, cherry-picked, dose response (AID 624132).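 Further: firefly luciferase luminescence from reporter carrying the Shn3 3'UTR in osteoblasts.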 Format: functional.
Test [31] in a line: loss of viability in HepG2 cells – cell-based, CellTiter-Glo, cherry-picked, cytotoxicity control for Shn3 inhibitor project, dose response (AID 624134). Format: functional.
The nature of test [32]: non-specific 3'UTR reporter inhibition in Clone20-Shn3RL – cell-based, Renilla luciferase, cherry-picked, counter-screen for Shn3 inhibitor project, dose response (AID 624133). Format: functional.

Activity calls are given as the source filed them.

T2 sequence (O43614 whole entry): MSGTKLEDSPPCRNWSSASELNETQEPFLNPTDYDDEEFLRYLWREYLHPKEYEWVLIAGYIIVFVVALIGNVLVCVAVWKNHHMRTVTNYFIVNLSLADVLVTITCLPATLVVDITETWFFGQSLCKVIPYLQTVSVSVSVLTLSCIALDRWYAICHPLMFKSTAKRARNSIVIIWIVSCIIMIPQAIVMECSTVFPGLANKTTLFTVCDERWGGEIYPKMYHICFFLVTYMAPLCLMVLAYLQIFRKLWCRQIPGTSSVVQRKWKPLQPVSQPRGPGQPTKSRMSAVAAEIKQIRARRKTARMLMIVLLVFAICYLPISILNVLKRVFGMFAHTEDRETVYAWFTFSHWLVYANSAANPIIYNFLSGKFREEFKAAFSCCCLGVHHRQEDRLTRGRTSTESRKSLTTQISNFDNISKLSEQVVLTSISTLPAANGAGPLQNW
T1 sequence (O43613 whole entry): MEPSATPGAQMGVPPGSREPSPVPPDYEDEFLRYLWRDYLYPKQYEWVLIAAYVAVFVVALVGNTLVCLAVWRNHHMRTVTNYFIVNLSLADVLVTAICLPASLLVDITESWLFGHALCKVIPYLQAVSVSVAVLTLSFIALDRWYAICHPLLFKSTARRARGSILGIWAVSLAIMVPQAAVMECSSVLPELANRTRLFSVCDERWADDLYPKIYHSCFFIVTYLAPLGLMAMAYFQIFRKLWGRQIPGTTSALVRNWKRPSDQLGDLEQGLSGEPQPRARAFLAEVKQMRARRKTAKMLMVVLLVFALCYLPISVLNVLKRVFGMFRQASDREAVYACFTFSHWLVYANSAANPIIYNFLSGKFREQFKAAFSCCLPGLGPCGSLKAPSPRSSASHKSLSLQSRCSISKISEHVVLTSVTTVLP
Photoreceptor-specific nuclear receptor, sequence (Q9Y5X4 whole entry): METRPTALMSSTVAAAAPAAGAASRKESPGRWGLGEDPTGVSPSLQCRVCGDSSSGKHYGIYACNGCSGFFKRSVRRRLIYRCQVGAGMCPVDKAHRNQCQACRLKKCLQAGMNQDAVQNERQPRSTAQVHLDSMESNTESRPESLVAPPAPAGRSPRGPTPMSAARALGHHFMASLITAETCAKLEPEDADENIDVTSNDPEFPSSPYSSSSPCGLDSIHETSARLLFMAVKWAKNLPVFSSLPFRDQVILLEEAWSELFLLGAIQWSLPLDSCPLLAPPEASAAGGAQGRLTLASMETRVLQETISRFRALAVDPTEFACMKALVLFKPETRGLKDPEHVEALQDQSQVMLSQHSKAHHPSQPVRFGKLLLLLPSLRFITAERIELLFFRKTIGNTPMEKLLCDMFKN
Peroxisome proliferator-activated receptor gamma/Nuclear receptor corepressor 2, sequence (P37231 whole entry): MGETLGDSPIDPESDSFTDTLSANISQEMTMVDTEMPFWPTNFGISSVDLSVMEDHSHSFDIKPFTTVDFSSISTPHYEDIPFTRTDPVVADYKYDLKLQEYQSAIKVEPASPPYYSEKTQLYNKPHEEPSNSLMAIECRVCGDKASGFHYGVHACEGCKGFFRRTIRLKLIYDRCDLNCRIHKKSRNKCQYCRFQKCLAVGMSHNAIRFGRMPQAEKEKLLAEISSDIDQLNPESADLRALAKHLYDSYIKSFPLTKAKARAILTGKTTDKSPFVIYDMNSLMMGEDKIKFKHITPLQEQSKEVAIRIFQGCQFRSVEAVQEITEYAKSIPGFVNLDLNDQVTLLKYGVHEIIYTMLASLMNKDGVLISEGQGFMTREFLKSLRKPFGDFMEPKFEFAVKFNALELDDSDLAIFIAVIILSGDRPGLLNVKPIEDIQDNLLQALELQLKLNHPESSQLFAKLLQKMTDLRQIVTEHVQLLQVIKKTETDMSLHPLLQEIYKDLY
Peroxisome proliferator-activated receptor gamma/Nuclear receptor corepressor 2, sequence (Q9Y618 whole entry): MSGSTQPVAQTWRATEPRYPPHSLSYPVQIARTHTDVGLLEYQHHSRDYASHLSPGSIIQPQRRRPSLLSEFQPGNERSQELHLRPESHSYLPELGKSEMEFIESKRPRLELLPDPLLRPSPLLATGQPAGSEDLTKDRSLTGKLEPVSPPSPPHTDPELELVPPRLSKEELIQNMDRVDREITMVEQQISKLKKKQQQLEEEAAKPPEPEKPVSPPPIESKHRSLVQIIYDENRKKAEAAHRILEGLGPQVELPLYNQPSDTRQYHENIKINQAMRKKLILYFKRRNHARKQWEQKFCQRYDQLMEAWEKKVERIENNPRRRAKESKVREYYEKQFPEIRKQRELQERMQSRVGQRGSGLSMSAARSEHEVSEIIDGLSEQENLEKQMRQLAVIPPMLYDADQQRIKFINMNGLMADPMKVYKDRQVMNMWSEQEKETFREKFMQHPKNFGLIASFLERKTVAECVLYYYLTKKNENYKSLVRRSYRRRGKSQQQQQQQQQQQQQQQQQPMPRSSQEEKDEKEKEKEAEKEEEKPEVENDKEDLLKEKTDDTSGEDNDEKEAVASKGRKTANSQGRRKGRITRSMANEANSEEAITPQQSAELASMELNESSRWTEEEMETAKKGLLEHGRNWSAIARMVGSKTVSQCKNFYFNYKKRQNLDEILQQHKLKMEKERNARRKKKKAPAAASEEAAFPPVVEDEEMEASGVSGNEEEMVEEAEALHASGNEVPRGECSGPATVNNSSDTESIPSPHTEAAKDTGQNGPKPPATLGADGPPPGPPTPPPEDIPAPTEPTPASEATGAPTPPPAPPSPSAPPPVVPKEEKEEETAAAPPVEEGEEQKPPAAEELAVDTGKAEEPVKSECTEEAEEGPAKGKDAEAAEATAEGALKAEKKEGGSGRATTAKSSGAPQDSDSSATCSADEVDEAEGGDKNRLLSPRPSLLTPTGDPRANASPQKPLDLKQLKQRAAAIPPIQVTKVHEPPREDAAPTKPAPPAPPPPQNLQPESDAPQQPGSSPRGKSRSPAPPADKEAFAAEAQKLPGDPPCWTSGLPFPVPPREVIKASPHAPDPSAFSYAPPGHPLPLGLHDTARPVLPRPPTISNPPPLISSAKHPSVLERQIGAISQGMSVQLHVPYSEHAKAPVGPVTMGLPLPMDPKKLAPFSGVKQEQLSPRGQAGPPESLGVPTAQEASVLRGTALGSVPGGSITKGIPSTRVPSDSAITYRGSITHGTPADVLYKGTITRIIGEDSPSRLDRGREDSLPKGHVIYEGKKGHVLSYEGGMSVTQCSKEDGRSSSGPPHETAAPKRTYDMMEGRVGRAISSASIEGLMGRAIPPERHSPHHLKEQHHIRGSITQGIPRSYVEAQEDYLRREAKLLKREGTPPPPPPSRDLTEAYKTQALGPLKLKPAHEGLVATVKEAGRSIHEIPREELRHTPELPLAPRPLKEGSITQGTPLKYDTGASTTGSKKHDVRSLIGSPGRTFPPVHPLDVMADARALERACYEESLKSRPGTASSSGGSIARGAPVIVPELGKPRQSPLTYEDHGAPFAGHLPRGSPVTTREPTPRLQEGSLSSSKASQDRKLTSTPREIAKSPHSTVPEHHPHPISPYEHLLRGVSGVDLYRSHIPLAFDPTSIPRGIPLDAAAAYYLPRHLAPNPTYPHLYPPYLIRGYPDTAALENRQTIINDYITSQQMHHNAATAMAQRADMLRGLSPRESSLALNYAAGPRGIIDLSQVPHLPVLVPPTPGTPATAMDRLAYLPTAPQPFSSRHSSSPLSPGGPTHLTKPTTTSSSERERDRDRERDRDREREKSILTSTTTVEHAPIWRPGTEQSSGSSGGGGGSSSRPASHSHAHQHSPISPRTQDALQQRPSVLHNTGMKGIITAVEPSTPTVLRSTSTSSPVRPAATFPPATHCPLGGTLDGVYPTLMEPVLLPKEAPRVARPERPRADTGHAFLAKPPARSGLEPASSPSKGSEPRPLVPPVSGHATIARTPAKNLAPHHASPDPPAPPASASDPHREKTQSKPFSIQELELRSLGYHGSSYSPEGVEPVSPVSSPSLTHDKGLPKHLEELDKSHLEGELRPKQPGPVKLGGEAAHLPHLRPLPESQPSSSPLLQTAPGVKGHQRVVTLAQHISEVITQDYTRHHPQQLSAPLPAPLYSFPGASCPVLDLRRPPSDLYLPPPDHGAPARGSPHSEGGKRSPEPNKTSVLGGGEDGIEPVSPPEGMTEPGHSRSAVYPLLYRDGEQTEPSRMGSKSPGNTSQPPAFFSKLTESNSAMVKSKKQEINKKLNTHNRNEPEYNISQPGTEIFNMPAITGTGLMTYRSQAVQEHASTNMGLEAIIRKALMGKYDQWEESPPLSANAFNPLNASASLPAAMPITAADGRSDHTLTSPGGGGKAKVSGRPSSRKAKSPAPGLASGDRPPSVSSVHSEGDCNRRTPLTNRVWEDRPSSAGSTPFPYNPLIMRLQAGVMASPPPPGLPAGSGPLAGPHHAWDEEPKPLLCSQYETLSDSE
Protein disulfide-isomerase, sequence (P07237 whole entry): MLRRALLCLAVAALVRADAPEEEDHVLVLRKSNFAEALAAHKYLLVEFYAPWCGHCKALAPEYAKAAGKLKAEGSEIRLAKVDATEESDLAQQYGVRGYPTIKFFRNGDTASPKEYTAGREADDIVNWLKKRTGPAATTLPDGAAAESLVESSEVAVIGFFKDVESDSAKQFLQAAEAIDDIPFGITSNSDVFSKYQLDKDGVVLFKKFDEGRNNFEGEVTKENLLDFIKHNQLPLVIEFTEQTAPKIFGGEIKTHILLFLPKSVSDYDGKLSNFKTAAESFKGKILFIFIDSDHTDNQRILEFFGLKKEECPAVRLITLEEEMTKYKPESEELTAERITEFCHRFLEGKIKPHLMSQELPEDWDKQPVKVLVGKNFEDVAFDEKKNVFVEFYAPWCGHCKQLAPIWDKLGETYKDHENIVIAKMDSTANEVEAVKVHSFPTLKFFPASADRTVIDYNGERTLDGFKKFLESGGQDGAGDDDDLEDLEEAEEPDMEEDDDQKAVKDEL

On to `CN(C)C(=O)CSc1nnc([C@H](Cc2c[nH]c3ccccc23)NC(=O)OC(C)(C)C)o1`, for which the AC50 (as a rule, the concentration giving half of the maximal activity seen) in test [1] was 19.5 µM (active).

As to `Cc1nc2ccc(NC(=O)c3oc4ccc(F)cc4c3C)cc2s1`, the IC50 (as a rule, the concentration that gives 50% inhibition) in [2] was 8.73 µM (active); in test [3] it was > 39.8 µM (not active); in test [4], > 66.2 µM (inactive); in [5], > 49.7 µM (inactive); in [6] it was 0.386 µM (active); in test [7], 1.76 µM (active). Further, the IC50 is > 88.8 µM (inactive) in test [8] and > 50 µM (inactive) in [9].

With `CNC[C@H](CC1CCCCC1)NC[C@H](Cc1ccccc1)NCCC12CC3CC(CC(C3)C1)C2`, the concentration giving a half-maximal response (EC50) (usually the concentration giving half of the maximal effect) in [10] is 136 µM (inconclusive); in test [11], 5.5 µM (active); in test [12], 3.27 µM (active); in [13], 2.64 µM (inconclusive); in [14], > 120 µM (not active); in test [15], > 120 µM (not active). Also, the EC50 in test [16] is 5.14 µM (inconclusive); in test [17] it was 3.71 µM (active); in test [18] it was 2 µM (active); in test [19], 4.21 µM (active); in test [20], 8.1 µM (active); in test [22] it was 8.41 µM (active). Also, the EC50 in test [24] is > 54.7 µM (inactive); in [25], 0.509 µM (inconclusive); in [26] it was 7.02 µM (active); in test [29], > 55.9 µM (inactive). In addition, the IC50 in [21] was > 66.6 µM (inactive); in [23], 22.8 µM (inactive); in test [28], 3.37 µM (active). Besides, the AC50 in test [27] is 3.77 µM (active); in test [30], 5.51 µM (active); in test [31], 4.47 µM (active); in [32], 7.45 µM (active).
